“And” between values parts separate entries of the source, which are not always exact repeats. Identical values can stand only once.
Legend:
[1] = test system: caerulein-induced CP mice (inflamed pancreas) versus healthy mice; test: In vivo validation of individual phage clones: ex vivo IVIS fluorescence of organs after co-injection of targeting phage (VT680) and wild type M13Ke phage (VT750); parameters: species or system mouse (C57BL/6J); details: for CP-to-Healthy Ratio (fold change of specificity ratio): Pancreas; for specificity for CP over healthy pancreas: individual clones from Groups 2 and 3
Protocol: C57BL/6 J mice (6-12 week-old, female) were used for the in vivo phage screening. For chronic pancreatitis, caerulein (Bachem, Torrance, California, United States of America) was dissolved in sterile saline and administrated to mice twice a day, 8 hours apart for 14 consecutive days, at a concentration of 250 μg/kg body weight via intraperitoneal injection (Halbrook et al., 2017), as shown in FIG. 1A. During the 14-day course, intraperitoneal injections of 100 μg/kg buprenorphine were given every 3 days to minimize the induced pain. For healthy controls, c57BL/6 J mice were injected intraperitoneally with an equal volume of sterile saline following the same schedule as in the chronic pancreatitis models. […] Picrosirius red (Polysciences, Inc., Warrington, Pennsylvania, United States of America) was used to visualize collagen in paraffin-embedded pancreas sections (FIG. 1B).
Specificity of phage clones. After PHASTpep analysis and candidate clone selections, 18 candidate clones were grouped (4-5 clones per group, 4 groups total) based on sequence similarity using GibbsCluster Server 2.0 (Andreatta et al., 2017). by the Technical University of Denmark (FIG. 2). […] For each group, the fluorescently labeled candidate and WT phage were mixed and co-injected in CP and healthy mice (n=5) Phage accumulation was determined by measuring the ex vivo fluorescent intensity of the pancreas at 20 hours post-injection using the Fluorescent Molecular Tomography (FMT, PerkinElmer, Waltham, Massachusetts, United States of America) using the excitation and emission wavelength at 675 nm/720 nm for VT680 and 745 nm/800 nm for VT750. To account for variations of fluorescent labeling efficiency, the raw readouts of VT680 and VT750 were normalized to the dye-per-phage ratio (see Table 3 below).
The specificity ratio was calculated as % ID/g of the normalized VT680 divided by the % ID/g of the normalized VT750 (see Equation (1)). Quantifications are included in Table 4.
A similar procedure was applied to determine the specificity of individual phage clones in Groups 2 and 3. Candidate clones were labeled with VivioTag 680 (VT680, PerkinElmer, Waltham, MA) to match the detectable wavelength of the IVIS Spectrum Series (Perkin Elmer, Waltham, Massachusetts, United States of America). Fluorescent intensity was measured at 20 hours post-injection of candidate phage (VT680) and WT phage (VT750). Fold change of specificity ratio was calculated as the specificity ratio of CP mice divided by the specificity ratio of the healthy mouse (see Table 5).

CD31 (endothelium) = test: Immunofluorescence colocalization (MCC) of VT680-labeled phage with cell marker in CP pancreas; type: in vivo, mouse; details: CP pancreas sections
Text: (§1) Immunofluorescence (IF). Post ex vivo imaging, mouse pancreata were submerged in Neg-50 Frozen Section Medium (Thermo Scientific, Waltham, Massachusetts, United States of America) and snap-frozen over liquid nitrogen vapor. The embedded tissues were cut into 5 μm sections using a cryostat (Leica Microsystems Inc., Buffalo Grove, Illinois, United States of America) for subsequent imaging with ZEISS LSM-880 Confocal Laser Scanning Microscope (Carl Zeiss Meditec, Inc., Jena, Germany) at the Advanced Microscopy Facility at the University of Virginia. Cell types of interest in the pancreatitis microenvironment were identified by immunohistochemistry using the following antibodies: rat anti-mouse CD31 at 1:200 dilution (endothelial markers; BD Biosciences, San Jose, California, United States of America), rat anti-mouse CD206 at 1:1000 dilution (M2 macrophage markers; Bio-Rad, Hercules, California, United States of America), rabbit anti-mouse cytokeratin 7 at 1:3000 dilution (CK-7, epithelial markers; Abcam, Cambridge, Massachusetts, United States of America), rabbit anti-mouse collagen IIIa at 1:200 dilution (ECM markers; Abcam, Cambridge, Massachusetts, United States of America), goat anti-mouse carboxypeptidase A1 at 1:200 dilution (CPA1, acini markers; R&D Systems, Inc., Minneapolis, Minnesota, United States of America), rat anti-mouse F4/80 at 1:500 (macrophage markers; Bio-Rad, Hercules, California, United States of America), and FITC-conjugated, mouse anti-mouse α-SMA at 1:200 dilution (MilliporeSigma, St. Louis, Missouri, United States of America). ALEXA FLUOR® 488 (Abcam, Cambridge, Massachusetts, United States of America) antibodies from appropriate species, including donkey anti-goat, donkey anti-rat, donkey anti-rabbit at 1:500 dilution, were used as secondary antibodies to locate the primary antibodies. IF-stained pancreatic sections were mounted with PROLONG™ Gold Antifade Mountant with DAPI (Thermo Fisher Scientific Inc, Waltham, Massachusetts, United States of America, United States of America) for nucleus visualization. IF images were taken on Ziess LSM 880 Confocal Microscope (ZIESS, Oberkochen, Germany) at the Advanced Microscopy Facility at the University of Virginia.
(§2) To identify the cell types that the CP targeting clones were binding, immunofluorescent analysis was performed on common cellular components in the CP microenvironment in the inflamed pancreas sections following in vivo validation of individual clones (FIG. 7). Mander's correlation coefficient (MCC) analysis was performed to determine colocalization of the targeting phage to the cell markers.

CK7 (epithelium) = test: as above; type: in vivo, mouse; details: CP pancreas sections
Text: as §1, §2

[2] = test system: CPA-1+ cells (acinar cells); test: as above; type: in vivo, mouse; details: CP pancreas sections
Text: as §1, §2

[3] = test system: F4/80+ cells (macrophages); test: as above; type: in vivo, mouse; details: CP pancreas sections
Text: as §1, §2

[4] = test system: collagen IIIa+ cells (ECM); test: as above; type: in vivo, mouse; details: Col IIIa; CP pancreas sections
Text: as §1, §2

[5] = test system: αSMA+ cells (activated PSC); test: as above; type: in vivo, mouse; details: CP pancreas sections
Text: as §1, §2

[6] = test system: cellular components in the CP microenvironment; test: Cellular selectivity of phage clones: one-way ANOVA and Tukey-Kramer comparison of MCC of all cell markers; type: in vivo, mouse
Text: as §1
Statistical analysis. Statistical analysis of the data was performed by student t-test, one-way analysis of variance (ANOVA), and Tukey-Kramer test. All data presented are expressed as mean+standard error of at least three independent measurements. For all comparisons, p-values<0.05 were considered significant.
as §2

[7] = statistically significant selectivity for a single cellular component in CP

Substance | Radiant efficiency Targeting:M13Ke ([1]; CP mouse, liver) | Radiant efficiency Targeting:M13Ke ([1]; CP mouse, pancreas) | Radiant efficiency Targeting:M13Ke ([1]; CP mouse, spleen) | CP-to-Healthy Ratio ([1]; Liver) | CP-to-Healthy Ratio (fold change of specificity ratio) [1] | CP-to-Healthy Ratio ([1]; Spleen) | Radiant efficiency Targeting:M13Ke ([1]; healthy mouse, liver) | Radiant efficiency Targeting:M13Ke ([1]; healthy mouse, pancreas) | Radiant efficiency Targeting:M13Ke ([1]; healthy mouse, spleen) | specificity for CP over healthy pancreas [1] | Mean Manders' Correlation Coefficient (MCC), fraction of phage overlapping cell marker (CD31 (endothelium)) | Mean Manders' Correlation Coefficient (MCC), fraction of phage overlapping cell marker (CK7 (epithelium)) | Mean Manders' Correlation Coefficient (MCC), fraction of phage overlapping cell marker [2] | Mean Manders' Correlation Coefficient (MCC), fraction of phage overlapping cell marker [3] | Mean Manders' Correlation Coefficient (MCC), fraction of phage overlapping cell marker [4] | Mean Manders' Correlation Coefficient (MCC), fraction of phage overlapping cell marker [5] | Cell type the phage clone shows specificity to ([6]; CP microenvironment) | Marker the phage clone shows specificity to ([6]; CP microenvironment) | Colocalized Markers (p < 0.05) [6, 7] | Corresponding Cellular Components [6, 7]
MNSIAIP (displayed on phage) | 0.61 | 9.81 | 3.61 | 1.144 | 1.945 | 0.829 | 0.53 | 5.04 | 4.36 | increased specificity for CP over healthy pancreas | 0.24 | 0.05 | 0.633±0.179 and 0.63 | 0.37 | 0.34 | 0.07 | Acinar cells | CPA1^+ | CPA-1 | Acinar cells
SLTNSSF (displayed on phage) | 1.33 | 8.86 | 2.65 | 1.248 | 5.469 | 0.985 | 1.06 | 1.62 | 2.69 | increased specificity for CP over healthy pancreas | 0.13 | 0.11 | 0.22 | 0.804±0.090 and 0.80 | 0.33 | 0.06 | Macrophage | – | – | Macrophage
HPYSPLR [7-mer peptide, candidate phage clone from Groups 2 and 3] | 0.59 | 6.42 | 3.10 | 0.744 | 1.544 | 1.138 | 0.80 | 4.16 | 2.73 | increased specificity for CP over healthy pancreas | 0.35 | 0.08 | 0.25 | 0.41 | 0.27 | 0.13 | – | – | – | –
SNSQDLH (displayed on phage) | 0.73 | 6.22 | 3.27 | 1.428 | 3.009 | 0.165 | 0.51 | 2.07 | 3.11 | increased specificity for CP over healthy pancreas | 0.12 | 0.14 | 0.23 | 0.800±0.197 and 0.80 | 0.33 | 0.05 | Macrophage | – | – | Macrophage
SANITNL (displayed on phage) [7-mer peptide, candidate phage clone selected by replicability between libraries] | 0.74 | 4.02 | 4.60 | 1.287 | 0.943 | 1.518 | 0.58 | 4.27 | 3.03 | – | – | – | – | – | – | – | – | – | – | –
HSGLNKQ (displayed on phage) [7-mer peptide, candidate phage clone selected by motif clustering analysis] | 0.63 | 6.07 | 3.42 | 1.254 | 0.611 | 1.157 | 0.50 | 9.93 | 2.96 | – | – | – | – | – | – | – | – | – | – | –
SLPLGPM (displayed on phage) [7-mer peptide, candidate phage clone from Groups 2 and 3] | 0.64 | 6.42 | 3.49 | 0.921 | 1.286 | 1.215 | 0.69 | 5.00 | 2.87 | increased specificity for CP over healthy pancreas | 0.25 | 0.06 | 0.35 | 0.49 | 0.23 | 0.15 | – | – | – | –

Source: patent publication US20240115729A1, “COMPOSITIONS AND METHODS FOR TARGETED ANTIFIBROTIC THERAPY IN CHRONIC PANCREATITIS” (University of Virginia Patent Foundation, priority 2021, published 2024)
